target: T1, Kv7.2/7.3 (Homo sapiens, UniProt O43525+O43526); assay: Kv7.2/7.3 Activation Assay (Thallium Flux Assay); type: cell-based; settings: hKV7.2/7.3 cell line; test compound at single concentration of 10 μM; fluorescence at 90 sec normalized to positive control (retigabine, 30 μM)
T1 construct: Kv7.2 tetracycline-induced, Kv7.3 constitutive
Excerpt: The Thallium Flux Assay is used as a surrogate indicator of potassium channel activity.
The experimental protocol was adapted from the FluxOR™ II Green Potassium Ion Channel Assay User Guide (Pub. No. MAN0016084, Invitrogen). Conditions were optimized for the Kv7.2/7.3 cell line.
Cell Line: The hKV7.2/7.3 cell line was obtained from Chantest (cat. #CT6147).
Cell Culture: Kv7.2/7.3 cells were maintained in a media containing DMEM/F12; 50/50 (Fisher 11-330), 10% Fetal Bovine Serum (FBS) (Fisher 26-140), 100 units/mL Penicillin-Streptomycin (Fisher 15-140), 0.005 mg/ml Blasticidin (InvivoGen ant-bl-1), 0.5 mg/mL Geneticin (InvivoGen ant-gn-5), and 0.1 mg/mL Zeocin (Fisher R25001). One day prior to experimentation, cells were plated in 96 well clear bottom plates (Corning cat. #353219) in a media without Blasticidin, Geneticin, or Zeocin. In this cell line Kv7.3 channel expression is controlled by a constitutive promoter. Kv7.2 channel expression was induced by adding tetracycline (Sigma T7660) at a final concentration of 10 ng/mL overnight in a cell culture incubator at 37° C. and 5% CO2. On the day of assay, the cell culture medium in the 96-well plates was replaced by assay buffer containing the thallium-sensitive fluorescent sensor, FluxOR II Green prepared according to manufacturer's instructions. The 96-well plates were then incubated for 1 h at 37° C. Following the incubation, the FluxOR II Green-containing solution was replaced with extracellular solution.
Test Compound Plates: The test compound is diluted in a mixture of 0.1% DMSO/extracellular solution at a single concentration of 10 μM. Dilutions were made on a Biomek NXP (BECKMAN COULTER). Extracellular solution contained (in mM: 145 NaCl, 4 KCl, 2 CaCl2), 1 MgCl2, 10 HEPES, and 10 Glucose, pH 7.4).
Measurement and data analysis: Thallium-flux-mediated changes in intracellular fluorescence were made using a plate reader (Enspire, Perkin Elmer) set with an excitation wavelength of 475 nm and an emission wavelength of 530 nm. After a 15 sec baseline measurement, the stimulus buffer containing thallium and potassium was added to the 96-well plate containing FluxOR II Green-loaded cells and test compounds. Fluorescence values at 90 sec were normalized to the positive control (retigabine, 30 μM) and test compound activities were assigned categories according to the formula: “No Activity <0.15, “+” Moderate Activity 0.15-0.7, and “++” High Activity >0.7.

| Compound | Kv7.2/7.3 Activity |
| --- | --- |
| Cc1c(C2CCC2)c(NC(=O)Cc2cc(F)cc(F)c2)nn1C [Compound 1, N-(4-cyclobutyl-1,5-dimethyl-1H-pyrazol-3-yl)-2-(3,5-difluorophenyl)acetamide] | + (“+” Moderate Activity 0.15-0.7) |
| CCn1nc(NC(=O)CC(C(F)(F)F)C(F)(F)F)c(C2CC2)c1C [Compound 2, N-(4-cyclopropyl-1-ethyl-5-methyl-1H-pyrazol-3-yl)-4,4,4-trifluoro-3-(trifluoromethyl)butanamide] | + (“+” Moderate Activity 0.15-0.7) |
| CCn1nc(NC(=O)Cc2cc(F)cc(F)c2)c(C2CC2)c1C [Compound 3, N-(4-cyclopropyl-1-ethyl-5-methyl-1H-pyrazol-3-yl)-2-(3,5-difluorophenyl)acetamide] | ++ (“++” High Activity ≥ 0.7) |
| CCn1nc(NC(=O)CC(C)(C)O)c(C2CC2)c1C [Compound 4, N-(4-cyclopropyl-1-ethyl-5-methyl-1H-pyrazol-3-yl)-3-hydroxy-3-methylbutanamide] | − (“−” No Activity < 0.15) |
| CCn1nc(NC(=O)CC(C)C)c(C2CC2)c1C [Compound 5, N-(4-cyclopropyl-1-ethyl-5-methyl-1H-pyrazol-3-yl)-3-methylbutanamide] | − (“−” No Activity < 0.15) |
| CCOC(=O)Nc1nn(CC)c(C)c1C1CC1 [Compound 6, ethyl (4-cyclopropyl-1-ethyl-5-methyl-1H-pyrazol-3-yl)carbamate] | − (“−” No Activity < 0.15) |
| CCn1nc(NC(=O)CC(C)(C)C)c(C2CC2)c1C [Compound 7, N-(4-cyclopropyl-1-ethyl-5-methyl-1H-pyrazol-3-yl)-3,3-dimethylbutanamide] | + (“+” Moderate Activity 0.15-0.7) |
| CCn1nc(NC(=O)Cc2ccccc2C(F)(F)F)c(C2CC2)c1C [Compound 8, N-(4-cyclopropyl-1-ethyl-5-methyl-1H-pyrazol-3-yl)-2-(2-(trifluoromethyl)phenyl)acetamide] | + (“+” Moderate Activity 0.15-0.7) |
| CCn1nc(NC(=O)Cc2cc(Cl)ccc2Cl)c(C2CC2)c1C [Compound 9, N-(4-cyclopropyl-1-ethyl-5-methyl-1H-pyrazol-3-yl)-2-(2,5-dichlorophenyl)acetamide] | + (“+” Moderate Activity 0.15-0.7) |
| CCn1nc(NC(=O)[C@H]2CC2(C)C)c(C2CC2)c1C [Compound 10, (S)-N-(4-cyclopropyl-1-ethyl-5-methyl-1H-pyrazol-3-yl)-2,2-dimethylcyclopropane-1-carboxamide] | + (“+” Moderate Activity 0.15-0.7) |
| CCn1nc(NC(=O)c2ccc(F)c(F)c2)c(C2CC2)c1C [Compound 11, N-(4-cyclopropyl-1-ethyl-5-methyl-1H-pyrazol-3-yl)-3,4-difluorobenzamide] | − (“−” No Activity < 0.15) |
| Cn1nc(NC(=O)CC2(C(F)(F)F)CC2)c(C2CCC2)c1-c1ccccc1 [Compound 12, N-(4-cyclobutyl-1-methyl-5-phenyl-1H-pyrazol-3-yl)-2-(1-(trifluoromethyl)cyclopropyl)acetamide] | ++ (“++” High Activity ≥ 0.7) |
| Cn1nc(NC(=O)CC(C)(C)C(F)(F)F)c(C2CCC2)c1-c1ccccc1 [Compound 13, N-(4-cyclobutyl-1-methyl-5-phenyl-1H-pyrazol-3-yl)-4,4,4-trifluoro-3,3-dimethylbutanamide] | ++ (“++” High Activity ≥ 0.7) |
| Cn1nc(NC(=O)C[C@@H]2CC(F)(F)C2(F)F)c(C2CCC2)c1-c1ccc(F)cc1 [Compound 14, (R)-N-(4-cyclobutyl-5-(4-fluorophenyl)-1-methyl-1H-pyrazol-3-yl)-2-(2,2,3,3-tetrafluorocyclobutyl)acetamide] | ++ (“++” High Activity ≥ 0.7) |
| Cn1nc(NC(=O)C[C@@H]2CC(F)(F)C2(F)F)c(C2CCC2)c1Cc1ccccc1 [Compound 15, (R)-N-(5-benzyl-4-cyclobutyl-1-methyl-1H-pyrazol-3-yl)-2-(2,2,3,3-tetrafluorocyclobutyl)acetamide] | ++ (“++” High Activity ≥ 0.7) |
| Cn1nc(NC(=O)C[C@H]2CC(F)(F)C2(F)F)c(C2CCC2)c1Cc1ccccc1 [Compound 16, (S)-N-(5-benzyl-4-cyclobutyl-1-methyl-1H-pyrazol-3-yl)-2-(2,2,3,3-tetrafluorocyclobutyl)acetamide] | ++ (“++” High Activity ≥ 0.7) |
| Cn1nc(NC(=O)CC2(C(F)(F)F)CC2)c(C2CCC2)c1Cc1ccccc1 [Compound 17, N-(5-benzyl-4-cyclobutyl-1-methyl-1H-pyrazol-3-yl)-2-(1-(trifluoromethyl)cyclopropyl)acetamide] | ++ (“++” High Activity ≥ 0.7) |
| Cn1nc(NC(=O)C[C@@H]2CC(F)(F)C2(F)F)c(C2CCC2)c1-c1noc2ccccc12 [Compound 18, (R)-N-(5-(benzo[d]isoxazol-3-yl)-4-cyclobutyl-1-methyl-1H-pyrazol-3-yl)-2-(2,2,3,3-tetrafluorocyclobutyl)acetamide] | ++ (“++” High Activity ≥ 0.7) |
| Cn1nc(NC(=O)C[C@H]2CC(F)(F)C2(F)F)c(C2CCC2)c1-c1noc2ccccc12 [Compound 19, (S)-N-(5-(benzo[d]isoxazol-3-yl)-4-cyclobutyl-1-methyl-1H-pyrazol-3-yl)-2-(2,2,3,3-tetrafluorocyclobutyl)acetamide] | ++ (“++” High Activity ≥ 0.7) |
| Cc1c(NC(=O)CC(C)(C)C(F)(F)F)nn(C)c1-c1ccc(F)cc1 [Compound 20, 4,4,4-trifluoro-N-(5-(4-fluorophenyl)-1,4-dimethyl-1H-pyrazol-3-yl)-3,3-dimethylbutanamide] | ++ (“++” High Activity ≥ 0.7) |
| Cn1nc(NC(=O)C[C@H]2CC(F)(F)C2(F)F)c(C2CCC2)c1-c1ccc(F)cc1 [Compound 21, (S)-N-(4-cyclobutyl-5-(4-fluorophenyl)-1-methyl-1H-pyrazol-3-yl)-2-(2,2,3,3-tetrafluorocyclobutyl)acetamide] | ++ (“++” High Activity ≥ 0.7) |
| CC(C)c1c(NC(=O)CC(C)(C)C)nn(C)c1-c1ccc(F)cc1 [Compound 22, N-(5-(4-fluorophenyl)-4-isopropyl-1-methyl-1H-pyrazol-3-yl)-3,3-dimethylbutanamide] | ++ (“++” High Activity ≥ 0.7) |
| CC(C)c1c(NC(=O)CC(C)(C)C)nn(C)c1-c1ccc(OC(F)(F)F)cc1 [Compound 23, N-(4-isopropyl-1-methyl-5-(4-(trifluoromethoxy)phenyl)-1H-pyrazol-3-yl)-3,3-dimethylbutanamide] | ++ (“++” High Activity ≥ 0.7) |
| CC(C)c1c(NC(=O)C[C@@H]2CC(F)(F)C2(F)F)nn(C)c1-c1ccc(OC(F)(F)F)cc1 [Compound 24, (R)-N-(4-isopropyl-1-methyl-5-(4-(trifluoromethoxy)phenyl)-1H-pyrazol-3-yl)-2-(2,2,3,3-tetrafluorocyclobutyl)acetamide] | ++ (“++” High Activity ≥ 0.7) |
